Test results: patent US20240408088A1, “PYRAZOLE DERIVATIVE, AND PREPARATION METHOD THEREFOR AND USE THEREOF IN MEDICINE” (Abbisko Therapeutics Co., Ltd., priority 2021, published 2024)

Columns and labels:
[1] = Pharmacokinetic assay in mice, single oral administration; format: in vivo; conditions: male, mouse, ICR mice, 10 mg/kg, plasma
Experimental: The purpose of this trial is to study the pharmacokinetic behavior of some compounds of the present invention, and the administration method is: Single oral administration (PO) to ICR mice:
ICR mice male N=3 original source: Shanghai Sippr-Bk Lab Animal Co., Ltd.
The compounds were weighed and dissolved in 20% PG+10% Solutol HS15+70% pH 3 citrate buffer, respectively, shaken well and sonicated to prepare colorless clear solutions or suspensions. Nine mice were administered orally at a dose of 10 mg/kg after an overnight fast.
About 90 μL of blood was collected via the submandibular vein per time point, heparin sodium anticoagulant was added, the sample was placed on ice after collection, and plasma was centrifuged within 1 hour (centrifugation conditions: 8,000 rpm, 6 minutes, 2-8° C.). The blood collection time points were 0, 0.25, 0.5, 1, 2, 4, 6, 8 and 24 h. The samples were stored in a refrigerator at −20° C.
The plasma sample was 40 μL, 160 μL of ice-cold acetonitrile containing internal standard was added, vortexed for 3 minutes, and centrifuged at 11,000 rpm for 5 minutes. 100 μL of the supernatant was taken and added to 100 μL of water, 5 μL of the sample was taken and injected into LC/MS/MS for analysis (see the table below for the results).
PK Results for Single Oral Administration (PO) of 10 mg/kg of Compounds to Mice

[2] = Liver microsomal stability experiment; format: in vitro ADME; conditions: pH 7.4; human liver microsomes, NADPH, 37° C., 0-45 min; read-out: Human Liver Microsome Stability Half-Life T1/2
Experimental: Buffer solution A: 1.0 L of 0.1 M potassium dihydrogen phosphate buffer solution (containing 1.0 mM EDTA);
Buffer solution B: 1.0 L of 0.1 M dipotassium phosphate buffer solution (containing 1.0 mM EDTA);
Buffer solution C: Buffer solution A was added to 700 mL of buffer solution B. The addition was stopped when pH reached 7.4.
The selected compounds of the examples and reference standards were dissolved in DMSO to prepare a stock solution of 10 mM.
• 500 μM solution: 10 μL of 10 mM stock solution was added to 190 μL of ACN; • 1.5 μM dosing solution (dissolved in liver microsome solution, human liver microsomes were purchased from Xenotech): 18.75 μL of 20 mg/mL liver microsomes was added to 479.75 μL of buffer solution C, then 1.5 μL of 500 μM solution was added and mixed well with gentle shaking.
NADPH was weighted, then an appropriate amount of buffer solution C was added to prepare a 6 mM of NADPH solution.
• 1. 30 μL of 1.5 μM dosing solution was added to the wells set to different time points (0 min, 5 min, 15 min, 30 min and 45 min) on a 96-well plate. 2 replicates were made. • 2. Preparation of the 0-min sample: 135 μL of ACN (containing internal standard) was first added to the 0-min well, and 15 μL of 6 mM NADPH solution was added. • 3. A 96-well plate containing 1.5 μM of dosing solution and NADPH solution were pre-warmed in a 37° C. water bath for 5 minutes. • 4. Pre-warmed 15 μL of 6 mM NADPH solution was added to the wells set to 5 min, 15 min, 30 min and 45 min, the reaction was started and the timing was started. • 5. […] The solution was vortexed for 10 minutes, and the sample was centrifuged on a centrifuge at 5594×g for 15 minutes. • 6. 50 μL of supernatant was taken from the centrifuged sample, transferred to a 96-well sample plate that has been added with 50 μL of water, mixed, and finally sent to LC-MS/MS for analysis. The half-life was calculated based on the test results.

[3] = test system: HCT 116 MTAP knockout cells; assay: Human colon cancer HCT116 cell proliferation inhibition test (MTAP knockout cells, CellTiter-Glo, 6 days); format: cell-based; conditions: Homo sapiens, HCT-116, 144 h
Experimental: (§1) • 1. HCT 116 MTAP knockout and MTAP wild-type cells were plated in 96-well flat bottom 5 plates, and cultured overnight with McCoy's 5A medium containing […]+1% penicillin-streptomycin at 37° C. and 5% CO2. • 2. On the next day, the compound was dissolved with DMSO, diluted with DMSO and medium successively and transferred to the cell plate. The final concentration of the compound was 10 μM, the compound was diluted 4 times, with 9 concentration gradients, and DMSO control was added. • 3. Cells that have not been treated with the compound were removed. CellTiter-Glo Luminescent Cell Viability Assay (Promega) was used to detect cell viability, the operation was performed with reference to the package insert of the kit, and then the cell plate was placed on EnVision Multilabel Reader to detect the cold light signal. • 4. Meanwhile, the cell plate treated with the compound was cultured at 37° C. and 5% CO2 for 6 consecutive days. • 5. Then, CellTiter-Glo was also used to detect cell viability. • 6. Finally, the four-parameter dose-response curve module of GraphPad Prism v 9.2.0 software was used to plot the dose-response curve and calculate the IC50 for proliferation inhibition (unit: nM).

[4] = test system: HCT 116 MTAP wild-type cells; assay: Human colon cancer HCT116 cell proliferation inhibition test (MTAP wild-type cells, CellTiter-Glo, 6 days); format: cell-based; conditions: HCT-116, 144 h
Experimental: as §1

Cn1ncc(-c2ccc3c(=O)[nH]nc(CN)c3c2)c1-c1c(F)c(Cl)cc(N2CCCC2)c1C#N [Example 28, 2-(4-(4-(aminomethyl)-1-oxo-1,2-dihydrophthalazin-6-yl)-1-methyl-1H-pyrazol-5-yl)-4-chloro-3-fluoro-6-(pyrrolidin-1-yl)benzonitrile]
AUC(0-t) [1]: 2980 ng·h/mL | Cmax [1]: 810 ng/mL | half-life [1]: 5 h | half-life at 1 µM [2]: 0.45 h | IC50 [3]: 17 nM | IC50 [4]: 761 nM
